# Source: patent US9289398B2, “Methods for the production of functional protein from DNA having a nonsense mutation and the treatment of disorders associated therewith” (PTC Therapeutics, Inc., priority 2006, dated 2016)
# Assays:
# Format in all cases: in vivo, human
# CFTR = test: Transepithelial potential difference (TEPD) chloride conductance, Phase 2 study in nonsense-mutation-mediated cystic fibrosis
# Procedure: The measurement of transepithelial potential difference (TEPD), also known as nasal potential difference, provides a sensitive evaluation of sodium and chloride transport directly in secretory epithelial cells via assessment of transepithelial bioelectric properties (Knowles et al., 1981, N. Engl. J. Med. 305(25):1489-95; Knowles et al., 1995, Hum. Gene Ther. 6:445). TEPD is performed in each nostril using standardized techniques (Standaert et al., 2004, Ped. Pulm. 37:385-92). In the procedure, a small plastic catheter is used to assess electrical differences across the outer cell membrane of nasal mucosa cells in the nostril. TEPD values are expressed in millivolts, or mV. A chloride conductance equal to or more electrically negative than −5.0 mV is generally considered to be in the normal range. […] TEPD assessments can also be made on rectal epithelial cells and lower respiratory epithelial cells. Because of the role of the CFTR protein in transporting chloride ions across cell membranes, and because of the absence of this protein, cystic fibrosis patients have an abnormal TEPD chloride conductance. As an endpoint, TEPD has the advantage that it can detect chloride transport changes that are a quantitative integration of the presence, functional activity, and apical location of the CFTR in airway cells. Furthermore, it is a direct measure of CFTR activity that is not likely to be affected by supportive or palliative treatments for CF (with the possible exception of systemically administered aminoglycoside antibiotics). Of importance is evidence that TEPD values can correlate with the degree of pulmonary dysfunction and radiographic abnormality (Ho et al., 1997, Eur. Respir. J. 10(9):2018-22; Fajac et al., 1998, Eur. Respir. J. 12(6):1295-300; Sermet-Gaudelus et al., 2005, Am. J. Respit. Crit. Care Med. 171(9):1026-1031). […] Under baseline conditions, TEPD-assessed chloride channel activity is very unlikely to normalize spontaneously in patients with CF; any observed improvements in TEPD-assessed chloride channel activity are expected to specifically denote pharmacological activity of CFTR-correcting therapies. Accordingly, it has become the primary endpoint in Phase 1-2 pharmacological and gene replacement studies aimed at correcting CFTR dysfunction (Peckham et al., 1995, AJ. Clin Sci (London). 89(3):277-84; Wilschanski et al., 2003, N. Engl. J. Med. 349(15):1433-41).
# 3-[5-(2-Fluoro-phenyl)-[1,2,4]oxadiazol-3-yl]-benzoic acid was provided in a formulation described herein.
# Clinical endpoints were evaluated using the procedures set forth above. TEPD measurements were made prior to treatment and on days 14 and 28 of Cycle 1 and Cycle 2. Nasal mucosal curettage was collected from each nostril of each patient prior to treatment and on days 14 and 28 of Cycle 1 and Cycle 2. Pulmonary tests, including FEV1, FVC and MEF25-75, were measured prior to treatment, on day −1 of Cycle 2, on day 13 or 14 of Cycle 1 and day 13 or 14 of Cycle 2 in the study being conducted in Israel and the same parameters were measured prior to treatment and on day 13 or 14 of Cycle 2 in the study being conducted in the United States.
# This is the average of the changes from the beginning to the end of the treatment period in TEPD chloride conductance within each study participant. For example, if the changes in TEPD chloride conductance within each of three participants were −7.0 mV, −2.0 mV and −9.0 mV, the mean change in TEPD chloride conductance among these participants would be −6.0 mV.
# For purposes of the trials, a chloride conductance response is defined as a TEPD chloride conductance improvement of at least −5 mV. For example, in a patient with a TEPD chloride conductance value of +1.0 my at baseline and a TEPD chloride conductance value of −6.0 mV at the end of treatment, the TEPD chloride conductance improvement would be −7.0 mV, representing a chloride conductance response. […]
# [1] = Patient-reported changes in cystic fibrosis symptoms, CF Phase 2 interim analysis; settings: of 15 CF patients in interim analysis
# Excerpt: In addition, although changes in patient's symptoms were not formally measured through the use of a quality-of-life questionnaire, trial investigators were requested to ask about changes in patients' cystic fibrosis symptoms. In the 15 patients included in the interim analysis, 6 reported general improvements in well being, 6 reported decrease in cough and 10 reported decreased mucus thickness and easier clearing of mucus.
# [2] = Safety and compliance, additional DMD Phase 2 study (26 boys)
# Procedure: An additional Phase 2 study was carried out as follows to evaluate 3-[5-(2-fluoro-phenyl)-[1,2,4]oxadiazol-3-yl]-benzoic acid safety, compliance, PK, effects on full-length muscle dystrophin protein expression, and clinical activity in patients with nonsense-mutation-mediated DMD.
# 3-[5-(2-fluoro-phenyl)-[1,2,4]oxadiazol-3-yl]-benzoic acid was administered orally for 28 days at dose levels of 4, 4, 8 mg/kg (low dose); 10, 10, 20 mg/kg (mid dose); and 20, 20, 40 mg/kg (high dose) after breakfast, lunch, and dinner, respectively. 26 boys (ages: 5-13 years; stop codons: 15 UGA, 6 UAG, 5 UAA; baseline serum CK: 8,645-49,500 IU; steroid use: 19/26) completed 3-[5-(2-fluoro-phenyl)-[1,2,4]oxadiazol-3-yl]-benzoic acid at the low (n=6) or mid (n=20) dose levels. […] Compliance was >98% for both dose levels. Day 1 and Day 28 PK indicate stable plasma exposures over time; however, exposures were lower than in 3-[5-(2-fluoro-phenyl)-[1,2,4]oxadiazol-3-yl]-benzoic acid-treated healthy adult volunteers and cystic fibrosis patients. […] Relative to baseline, post-treatment increases in in vivo dystrophin expression occurred in 4/6 (67%) (90% CI 27-94%) and 10/20 (50%) (90% C1-30-70%) boys at low and mid doses, respectively.
# [3] = Higher dose level 10, 10, 20 mg/kg TID oral 14 days, 15 CF patients
# [4] = Lower dose level 4, 4, 8 mg/kg TID oral 14 days, 15 CF patients
structure (smiles),measurement,setting,value
"O=C(O)c1cccc(-c2noc(-c3ccccc3F)n2)c1 [3-[5-(2-fluoro-phenyl)-[1,2,4]oxadiazol-3-yl]-benzoic acid]",TEPD chloride conductance in patients with different types of nonsense mutations within the CFTR gene,CFTR; 15 CF patients,Improvements in TEPD chloride conductance
same,Mean change in TEPD chloride conductance: Best of nostrils,CFTR; [3],−6.4 mV
same,Mean change in TEPD chloride conductance: Mean of both nostrils,CFTR; [3],−4.4 mV
same,Mean change in TEPD chloride conductance: Best of nostrils,CFTR; [4],−9.0 mV
same,Mean change in TEPD chloride conductance: Mean of both nostrils,CFTR; [4],−6.7 mV
same,Treatment effects at the lower and the higher dose levels (TEPD chloride conductance),"CFTR; lower 4, 4, 8 mg/kg versus higher 10, 10, 20 mg/kg",not statistically significant
same,Patients reporting decrease in cough,[1],6
same,Patients reporting decreased mucus thickness and easier clearing of mucus,[1],10
same,Patients reporting general improvements in well being,[1],6
same,Severity of adverse events and laboratory abnormalities,"[2]; 26 boys, low (n=6) or mid (n=20) dose, 28 days oral",mild-moderate
same,Dose relation of adverse events and laboratory abnormalities,"[2]; low 4, 4, 8 mg/kg versus mid 10, 10, 20 mg/kg",no dose-related changes in frequency or severity
